From patent US20050118601A1, “Enhancer sequence of the 5-aminolevulinic acid synthase gene” (priority 2002, published 2005)
Where two headings read alike, the source gives them in different places.

Key:
ALAS1 mRNA = ALAS1 mRNA quantification (Taqman real-time PCR) in LMH cells; format: cell-based, chicken
Experimental: We next wanted to compare ADRES-mediated ALAS1 induction levels from reporter gene assays with stimulation of transcription in a physiological system. […] In addition, the common CYP3A inducers dexamethasone (50 μM), metyrapone (400 μM), and 10 μM mifepristone (RU-486) were employed for comparison. We were also interested in the effects of […] 5-pregnen-3β-ol-20-one-16α-carbonitrile (PCN) and rifampicin (100 μM) due to their species-specific effects on PXR activation and CYP3A induction. Messenger RNA was reverse transcribed and levels of ALAS1 cDNA were quantified using the Taqman real-time PCR quantification system as described in Materials and Methods. […] This value was chosen to represent 100% induction, against which all other values are compared.
LMH cells were plated onto 12-well plates, expanded to 70-80% surface density and incubated in serum-free media for 24 h. Cells were then exposed to either drug or vehicle and RNA was isolated with Trizol reagent (Gibco BRL) according to the manufacturer protocol. One μg of total RNA was reverse transcribed with the Moloney murine leukemia virus reverse transcriptase kit (Roche Molecular Biochemicals). PCR was performed using the Taqman PCR core reagent kit (PE Applied Biosystems) and transcript levels quantitated with an ABI Prism 7700 sequence detection system (PE Applied Biosystems). Relative transcript levels were determined using the relative quantitation method measuring the ΔΔCt. The following primers and probes were used in these reactions. […] Transcript levels were measured in separate tubes and GAPDH values were used for normalization of ALAS1 values.

mouse PXR = target: T1, mouse PXR (Mus musculus, UniProt O54915)
T1 sequence (O54915 1-431): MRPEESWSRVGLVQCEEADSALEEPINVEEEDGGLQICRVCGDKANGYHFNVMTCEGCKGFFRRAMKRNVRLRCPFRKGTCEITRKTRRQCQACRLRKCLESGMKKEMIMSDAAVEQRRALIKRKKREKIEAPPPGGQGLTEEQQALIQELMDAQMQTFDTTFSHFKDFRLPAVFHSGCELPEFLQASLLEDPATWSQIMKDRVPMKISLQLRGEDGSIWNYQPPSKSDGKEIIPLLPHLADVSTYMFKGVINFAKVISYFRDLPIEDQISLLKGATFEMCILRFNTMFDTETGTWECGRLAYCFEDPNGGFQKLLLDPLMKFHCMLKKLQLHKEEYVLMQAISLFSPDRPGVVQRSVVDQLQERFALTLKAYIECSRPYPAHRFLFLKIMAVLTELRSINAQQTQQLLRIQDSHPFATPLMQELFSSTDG
Experimental: (§1) To test the effects of the mutations on transcriptional activation, transactivations in CV-1 cells with mouse PXR and mouse CAR and their respective inducers PCN and TCPOBOP, were performed (FIG. 14). The inducible DNA constructs were subcloned into the CAT5 reporter vector and tested for their ability to be transactivated by nuclear receptor transcription factors in CV-1 cells. Mouse PXR (A) and mouse CAR (B) coding regions cloned into the pSG5 expression vector were cotransfected along with a vector expressing pSV β-galactosidase as control. Cells were then treated for 16 h with either drugs (A, PCN; B, TCPOBOP) or vehicle control and cell extracts were analyzed for CAT expression normalized against β-galactosidase levels. Experiments were repeated at least three times and error bars represent standard deviations.

[1] = test system: chicken ALAS1 drug responsive enhancer sequence (ADRES) elements; assay: Luciferase reporter gene assay of chicken ALAS1 5'-flanking fragments / ADRES elements in transfected LMH cells; format: cell-based; conditions: for ADRES activation in reporter assays: LMH cells, 16 h, PIA 250 μM, glutethimide 500 μM, metyrapone 400 μM, dexamethasone 50 μM, RU-486 10 μM, rifampicin 100 μM, TCPOBOP 10 μM, compared with PB 600 μM
Experimental: The constructs were transfected together with a transfection-control construct expressing β-galactosidase into LMH cells. Cells were then treated with 600 μM PB for 16 h and luciferase assays were performed on the cell extracts. Relative luciferase levels are standardized against cells transfected with vector containing no insert and expressed as fold induction. Experiments were repeated at least three times and data from a representative experiment tested in triplicate are shown here. Error bars represent standard deviations;
Three major subclones were generated from the region upstream of the transcriptional start site, including a 3282 bp SmaI fragment and 5056 bp and 7973 bp EcoRI segments (FIG. 1A). The SmaI clone extends from −167 bp to −3449 bp, whereas the EcoRI subfragments span the regions from −2347 bp to −7402 bp and −7403 bp to −15376 bp, respectively. These subfragments were cloned into the pLucMCS modified luciferase vector containing an SV40 promoter as described in Materials and Methods. Drug inducibility was measured in transiently transfected LMH cells treated with 600 μM PB and compared with control values. […]
The modified enhancers were examined for response to 600 μM PB in luciferase reporter gene assays and the results are presented in FIG. 3.
Leghorn Male Hepatoma (LMH) cells were obtained from the American Type Culture Collection and cultivated in 10 cm dishes in Williams E medium supplemented with 10% FCS, 1% glutamine (2 mM) and 1% penicillin/streptomycin (50 IU/ml). Dishes coated with 0.1% gelatin were used for routine culture of LMH cells in order to facilitate proper seating of the cells onto the plastic plate surface.

mouse CAR = target: T2, mouse CAR (Mus musculus, UniProt O35627); assay: Transactivation of 369 bp ADRES by mouse CAR in CV-1 cells (CAT reporter); format: cell-based
T2 construct: expressed in transfected cells; host or cells: CV-1 cells, pSG5 expression vector
T2 sequence (O35627 1-358): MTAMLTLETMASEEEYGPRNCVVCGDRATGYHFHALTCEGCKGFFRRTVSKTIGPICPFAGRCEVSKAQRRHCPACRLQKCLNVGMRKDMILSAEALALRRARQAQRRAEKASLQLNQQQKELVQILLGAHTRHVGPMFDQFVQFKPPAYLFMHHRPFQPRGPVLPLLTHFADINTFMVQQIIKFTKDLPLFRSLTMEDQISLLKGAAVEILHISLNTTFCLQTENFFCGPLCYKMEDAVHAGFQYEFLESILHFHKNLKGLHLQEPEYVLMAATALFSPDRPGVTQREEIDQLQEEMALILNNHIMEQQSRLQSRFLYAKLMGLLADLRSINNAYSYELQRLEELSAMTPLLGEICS
Experimental: as §1

mouse 369 bp DRES = assay: Luciferase reporter gene assay of mouse ALAS1 fragments / 369 bp DRES in LMH cells; format: cell-based; conditions: for induction of the 369 bp DRES, ranking of drugs: metyrapone 500 μM, glutethimide 500 μM, PIA 250 μM
Experimental: A 175 bp fragment (441 to 615) (Seq. Id. No. 3) was isolated by digesting the 2.6 kb fragment with SacI/XbaI. All fragments were subcloned in the pGL3LUCpro+MCS vector and the resulting constructs tested for inducibility in LMH reporter gene assay (FIG. 6). […] The 369 bp fragment was termed Drug responsive enhancer sequence DRES.
To compare the 369 bp DRES to other inducible fragments, a series of different drugs was used as inducers: clothrimazole (Clo, 10 μM), dexamethasone (Dex, 50 μM), glutethimide (GE, 500 μM), metyrapone (Met, 500 μM), phenobarbital (PB, 500 μM), PCN (10 μM), propylisopropylacetamide (PIA, 250 μM), rifampicin (Rif, 10 μM), RU486 (10 μM), TCPOBOP (10 μM).
Data shown is from two independent experiments.

Compound: CC(=O)[C@H]1[C@H](C#N)C[C@H]2[C@@H]3CC=C4C[C@@H](O)CC[C@]4(C)[C@H]3CC[C@@]21C [PCN, 5-pregnene-3β-ol-20-one-16α-carbonitrile]
- effect on ALAS1 mRNA levels (ALAS1 mRNA): minor or no effects
- activation, DR4-1 double mutant (mouse PXR): 1.9 fold
- activation, first DR4-2 single mutant (DR4-2/hs1) (mouse PXR): 5.8 fold
- activation, second DR4-2 single mutant (DR4-2/hs2) (mouse PXR): 5.3 fold
- drug response, both NR binding sites of 369 bp element altered (mouse PXR): elimination of PXR-mediated drug response
- induction, 369 bp wild type (mouse PXR): 5.6 fold
- induction, DR4-2 double mutant (mouse PXR): 2.5 fold
- induction, first DR4-1 single mutant (DR4-1/hs1) (mouse PXR): 2.7 fold
- induction, second DR4-1 single mutant (DR4-1/hs2) (mouse PXR): 2.0 fold
- ADRES activation in reporter assays [1]: minor or no effects

Compound: CC#C[C@]1(O)CC[C@H]2[C@@H]3CCC4=CC(=O)CCC4=C3[C@@H](c3ccc(N(C)C)cc3)C[C@@]21C [RU-486, Mifepristone]
- effect on ALAS1 mRNA levels (ALAS1 mRNA; LMH cells, 16 h, PB 600 μM, dexamethasone 50 μM, RU-486 10 μM, rifampicin 100 μM, TCPOBOP 10 μM): minor or no effects
- ADRES activation in reporter assays [1]: minor or no effects

Compound: C[C@@]12CCC[C@H]1[C@@H]1CC[C@H]3C[C@@H](O)CC[C@]3(C)[C@H]1CC2 [androstanol]
- basal expression exceeding androstanol-treated levels, DR4-2/hs1 single mutant (mouse CAR): 2.5 fold
- basal expression exceeding androstanol-treated levels, DR4-2/hs2 single mutant (mouse CAR): 1.9 fold

Compound: CC(C)(C(=O)c1cccnc1)c1cccnc1 [metyrapone, 2-methyl-1,2-di-3-pyridyl-propadone]
- induction of mouse 175, 280, 321, 328 and 369 bp fragments (mouse 369 bp DRES; Metyrapone 500 μM): enhanced induction
- induction of the 369 bp DRES, ranking of drugs (mouse 369 bp DRES): strongest inducer
- ADRES activation in reporter assays [1]: in excess of levels obtained from PB treatment
- relative response of the 167 bp element ([1]; metyrapone 400 μM vs glutethimide 500 μM): stronger response to metyrapone than glutethimide

Compound: CCC1(c2ccccc2)CCC(=O)NC1=O (stereo not drawn) [glutethimide, Glutethimide]
- induction of the 369 bp DRES, ranking of drugs (mouse 369 bp DRES): strongest inducer
- ADRES activation in reporter assays [1]: in excess of levels obtained from PB treatment
- relative response of the 176 bp element ([1]; glutethimide 500 μM vs metyrapone 400 μM): slightly more affinity for glutethimide than metyrapone
